Legend:
[1] = biological target: Recombinant Human Siglec-3/CD33 protein (His-CD33) (Homo sapiens (Human), UniProt P20138); assay: Differential scanning fluorimetry (DSF) thermal shift assay; format: binding
Procedure: In the DSF assay, as the temperature increases, the protein gets gradually unfolded, exposing hydrophobic regions in which a fluorescent dye binds causing the fluorescence signal to increase. The midpoint of the unfolding transitions is called the thermal melt (Tm) or denaturation temperature and the Tm was defined as the peak apex in the derivative curve. Here, the Tm temperature of CD33 in the presence and absence of A-001 at a concentration of 50 μM was examined.
Recombinant Human Siglec-3/CD33 protein was purchased from Acros (catalog no. CD3-H5226) and reagents used in this study are shown in the Table 1 below.
Lyophilized CD33 protein was received in 1 mg aliquots from Acros. The protein was diluted with 2.5 mL of sterile water to a concentration of 400 μg/mL (14.5 μM), aliquoted into 138 μL aliquots and stored as at −20° C. On the day of analysis, the protein was thawed and […] solution was diluted to […] using buffer containing 133 mM NaCl, 133 mM phosphate buffered solution and 13.9× Sypro Orange dye in water in a quantity to cover the amount of samples tested on the day of the analysis.
200 μM stock solutions of A-001 containing 0.2% DMSO in water was supplied by compound management in a 384-well plate format.
Sample matrix were prepared by adding 7.5 μL of the protein buffer stock solution followed by addition of 2.5 μL of the 200 μM compound solutions in 384-well PCR plates to give a final volume of 10 μL per well consisting of 0.5 μM CD33 protein, 100 mM phosphate buffered solution pH 7.4, 100 mM NaCl, 10× SYPRO orange dye and 50 μM compound concentration (final DMSO concentration ˜0.2%). Using the Applied Biosystems® Protein Thermal Shift software (algorithm version 1.3.), the denaturation temperature or thermal melt (Tm) of the unbound and ligand bound CD33 protein was automatically assigned and the difference in thermal melt (ΔTm D) was calculated using the derivative curve by the Protein Thermal Shift software.
Recombinant human CD33 protein (0.5 μM) was incubated under buffered conditions in the presence of SYPRO orange dye, a temperature gradient was applied and a thermogram was produced by monitoring the fluorescence. The Tm was defined as the peak apex in the derivative curve in the study. […] Addition of […] of A-001 (Blue lines) to the CD33 protein induced significant Tm increases (ΔTm D) of 12.2±0.7° C.

[2] = biological target: Recombinant human CD33 protein (Homo sapiens (Human), UniProt P20138); assay: CD33 competitive binding assay for HTS drug screen (fluorescent multivalent sialic acid probe)
Sequence of Recombinant human CD33 protein (P20138 18-259): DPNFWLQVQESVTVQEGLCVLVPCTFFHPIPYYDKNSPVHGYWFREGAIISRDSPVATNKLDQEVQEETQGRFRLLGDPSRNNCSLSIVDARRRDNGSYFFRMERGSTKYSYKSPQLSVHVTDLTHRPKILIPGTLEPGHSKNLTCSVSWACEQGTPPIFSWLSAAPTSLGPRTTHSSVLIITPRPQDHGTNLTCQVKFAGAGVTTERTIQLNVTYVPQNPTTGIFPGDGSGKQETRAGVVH
Procedure: This is a competitive binding assay that uses recombinant CD33 immobilized to a plate and a fluorescently-labeled multivalent sialic acid analog as a probe. Binding of drug to the site on CD33 to which sialic acid binds is detected by reduced binding of the fluorescent probe. Recombinant human CD33 protein (for example Acro Biosystems cat #CD3-H5257) was added at a concentration of 10 μg/ml in 20 mM acetate buffer (pH5.5) to a black plastic plate (Corning 4510) and allowed to incubate overnight at 4° C. The next day, the wells were washed 3 times with PBS containing 0.02% Tween-20. This was followed by a 30-minute incubation with PBS containing 0.2% Tween-20 and 0.5% BSA to block non-specific binding to the well. This buffer is removed and replaced with 10 μl of the same buffer, which is also used as the assay buffer. The fluorescent multivalent sialic acid probe was prepared as a 4× concentration as follows. A biotinylated sialic acid analog A-375 was mixed with biotin-4-Fluorescein isothiocyanate (biotin-4-FITC) at a 3:1 molar ratio with final concentrations (4× stock) of 60 μM A-375 and 20 μM biotin-4-FITC. After these were mixed, 20 μM of neutravidin was added, which should form complexes consisting of neutravidin, fluorescein and sialic acid with an average complex consisting of 1 neutravidin, 1 FITC and 3 sialic acid analogs. The multimerization of the sialic acid analog is critical to the assay and improves the affinity of the sialic acid analog several orders of magnitude. A test compound, for example A-001, is added at 5 μl to the 10 μl assay buffer already in the well. After a brief incubation, 5 μl of the 4× stock solution of sialic acid complexes was added. The final concentration of the complexes was therefore 5 μM neutravidin, 15 μM A-375 and 5 μM FITC. The plate was incubated at room temperature for 30 mins and then washed with PBS containing 0.2% Tween-20. Binding of the sialic acid complex is very stable, with an off-rate of several days. Bound complex was then detected using a standard plate reader to quantify FITC fluorescence.

[3] = thermal melt shift of 0.5 μM CD33 protein with 50 μM compound

Sequence of Recombinant Human Siglec-3/CD33 protein (His-CD33) (P20138 18-259): as above

| SMILES | DSF (dTmD) [1, 3] | EC50 [2] [nM] | DSF (dTmD) ([1]; difference in thermal melt of CD33 protein (0.5 μM) with 50 μM compound) [°C] |
| --- | --- | --- | --- |
| COC(=O)[C@@]1(CCN2CCOC[C@@]23CCN(C(=O)OC(C)(C)C)C3)C[C@H](O)[C@@H](NC(C)=O)[C@H]([C@H](O)[C@H](O)CNC(=O)c2cc(C)c(O)c(C)c2)O1 [A-002] | −0.3 | – | – |
| CC(=O)N[C@H]1[C@H]([C@H](O)[C@H](O)CNC(=O)c2cc(C)c(O)c(C)c2)O[C@@](CCN2CCOC[C@]23CCN(C(=O)OC(C)(C)C)C3)(C(=O)O)C[C@@H]1O [A-003] | 5.12 | 1140 | – |
| CC(=O)N[C@H]1[C@H]([C@H](O)[C@H](O)CNC(=O)c2cc(C)c(O)c(C)c2)O[C@@](CCN2C[C@@H](C)OC[C@@]23CCN(C(=O)OC(C)(C)C)C3)(C(=O)O)C[C@@H]1O [A-004] | 9.1 | 98 | – |
| CC(=O)N[C@H]1[C@H]([C@H](O)[C@H](O)CNC(=O)c2cc(C)c(O)c(C)c2)O[C@@](CCN2CCOCC2(C)CNC(=O)OC(C)(C)C)(C(=O)O)C[C@@H]1O (stereo partly drawn) [A-009] | 6.1 | 2000 | – |
| CC(=O)N[C@H]1[C@H]([C@H](O)[C@H](O)CNC(=O)c2cc(C)c(O)c(C)c2)O[C@@](CCN2CCN(C)C[C@]23CCN(C(=O)OC(C)(C)C)C3)(C(=O)O)C[C@@H]1O [A-011] | 3.9 | 1630 | – |
| CC(=O)N[C@H]1[C@H]([C@H](O)[C@H](O)CNC(=O)c2cc(C)c(O)c(C)c2)O[C@@](CCN2CCN(C(C)=O)C[C@]23CCN(C(=O)OC(C)(C)C)C3)(C(=O)O)C[C@@H]1O [A-015] | 3.8 | 3340 | – |
| CC(=O)N[C@H]1[C@H]([C@H](O)[C@H](O)CNC(=O)c2cc(C)c(O)c(C)c2)O[C@@](CCN2CCCC23CN(C(=O)OC(C)(C)C)C3)(C(=O)O)C[C@@H]1O [A-017] | 1.2 | 1560 | – |
| CC(=O)N[C@H]1[C@H]([C@H](O)[C@H](O)CNC(=O)c2cc(C)c(O)c(C)c2)O[C@@](CCN2CCOCC2c2cccnc2)(C(=O)O)C[C@@H]1O (stereo partly drawn) [A-024] | 1.1 | 7940 | – |
| CC(=O)N[C@H]1[C@H]([C@H](O)[C@H](O)CNC(=O)c2cc(C)c(O)c(C)c2)O[C@@](CCN2C(C)CCC23CCN(C(=O)OC(C)(C)C)C3)(C(=O)O)C[C@@H]1O (stereo partly drawn) [A-025] | 10.0 | 115 | – |
| CC(=O)N[C@H]1[C@H]([C@H](O)[C@H](O)CNC(=O)c2cc(C)c(O)c(C)c2)O[C@@](CCNC2(C)CCN(C(=O)OC(C)(C)C)C2)(C(=O)O)C[C@@H]1O (stereo partly drawn) [A-026] | 9.2 | 830 | – |
| CC(=O)N[C@H]1[C@H]([C@H](O)[C@H](O)CNC(=O)c2cc(C)c(OCCN)c(C)c2)O[C@@](CCN2CCCC[C@@]23CCN(C(=O)OC(C)(C)C)C3)(C(=O)O)C[C@@H]1O [A-027] | 10.4 | 64 | – |
| CC(=O)N[C@H]1[C@H]([C@H](O)[C@H](O)CNC(=O)c2cc(C)c(O)c(C)c2)O[C@@](CCN2CCCC[C@]23CN(C(=O)OC(C)(C)C)C[C@@H]3CO)(C(=O)O)C[C@@H]1O [A-028] | 8.1 | 159 | – |
| CC(=O)N[C@H]1[C@H]([C@H](O)[C@H](O)CNC(=O)c2cc(C)c(O)c(C)c2)O[C@@](CCN2CCCC[C@@]23CN(C(=O)OC(C)(C)C)C[C@H]3CO)(C(=O)O)C[C@@H]1O [A-029] | 2.1 | 9730 | – |
| C=CC[C@@]1(NCC[C@]2(C(=O)O)C[C@H](O)[C@@H](NC(C)=O)[C@H]([C@H](O)[C@H](O)CNC(=O)c3cc(C)c(O)c(C)c3)O2)CCN(C(=O)OC(C)(C)C)C1 [A-032] | 8.4 | 181 | – |
| C=CC[C@]1(NCC[C@]2(C(=O)O)C[C@H](O)[C@@H](NC(C)=O)[C@H]([C@H](O)[C@H](O)CNC(=O)c3cc(C)c(O)c(C)c3)O2)CCN(C(=O)OC(C)(C)C)C1 [A-033] | 6.1 | 1610 | – |
| C=C[C@H]1CN(C(=O)OC(C)(C)C)C[C@@]1(C)NCC[C@]1(C(=O)O)C[C@H](O)[C@@H](NC(C)=O)[C@H]([C@H](O)[C@H](O)CNC(=O)c2cc(C)c(O)c(C)c2)O1 [A-034] | 6.7 | 880 | – |
| C=C[C@@H]1CN(C(=O)OC(C)(C)C)C[C@]1(C)NCC[C@]1(C(=O)O)C[C@H](O)[C@@H](NC(C)=O)[C@H]([C@H](O)[C@H](O)CNC(=O)c2cc(C)c(O)c(C)c2)O1 [A-035] | 7.4 | 413 | – |
| CC(=O)N[C@H]1[C@H]([C@H](O)[C@H](O)CNC(=O)c2cc(C)c(O)c(C)c2)O[C@@](CCN2CCOC[C@@]23CCN(c2cnccn2)C3)(C(=O)O)C[C@@H]1O [A-040] | 6.3 | 363 | – |
| CC(=O)NC1[C@H]([C@H](O)[C@H](O)CNC(=O)c2cc(C)c(O)c(C)c2)O[C@@](CC(=O)N2CCOC[C@]23CCN(C(=O)OC(C)(C)C)C3)(C(=O)O)C[C@@H]1O (stereo partly drawn) [A-222] | – | – | 9.3 |

Continued, values first:

| DSF (dTmD) [1, 3] | EC50 [2] [nM] | DSF (dTmD) ([1]; difference in thermal melt of CD33 protein (0.5 μM) with 50 μM compound) [°C] | SMILES |
| --- | --- | --- | --- |
| 14.1 | 7 | – | CC(=O)N[C@H]1[C@H]([C@H](O)[C@H](O)CNC(=O)c2cc(C)c(O)c(C)c2)O[C@@](CCN2C[C@H](C)OC[C@@]23CCN(C(=O)OC(C)(C)C)C3)(C(=O)O)C[C@@H]1O [A-005] |
| 13.5 | 15 | – | CC(=O)N[C@H]1[C@H]([C@H](O)[C@H](O)CNC(=O)c2cc(C)c(O)c(C)c2)O[C@@](CCN2CCN(C)C[C@@]23CCN(C(=O)OC(C)(C)C)C3)(C(=O)O)C[C@@H]1O [A-010] |
| 12.6 | 22 | – | CC(=O)N[C@H]1[C@H]([C@H](O)[C@H](O)CNC(=O)c2cc(C)c(O)c(C)c2)O[C@@](CCN2CCNC[C@@]23CCN(C(=O)OC(C)(C)C)C3)(C(=O)O)C[C@@H]1O [A-012] |
| 11.4 | 35 | – | CC(=O)N[C@H]1[C@H]([C@H](O)[C@H](O)CNC(=O)c2cc(C)c(O)c(C)c2)O[C@@](CCN2CCNC[C@]23CCN(C(=O)OC(C)(C)C)C3)(C(=O)O)C[C@@H]1O [A-013] |
| 12.3 | 19 | – | CC(=O)N[C@H]1[C@H]([C@H](O)[C@H](O)CNC(=O)c2cc(C)c(O)c(C)c2)O[C@@](CCN2CCN(C(C)=O)C[C@@]23CCN(C(=O)OC(C)(C)C)C3)(C(=O)O)C[C@@H]1O [A-014] |
| 9.7 | 34 | – | CC(=O)N[C@H]1[C@H]([C@H](O)[C@H](O)CNC(=O)c2cc(C)c(O)c(C)c2)O[C@@](CCN2CC(=O)N(C)C[C@@]23CCN(C(=O)OC(C)(C)C)C3)(C(=O)O)C[C@@H]1O [A-016] |
| 12.5 | 16 | – | CC(=O)N[C@H]1[C@H]([C@H](O)[C@H](O)CNC(=O)c2cc(C)c(O)c(C)c2)O[C@@](CCN2CCOC[C@@]23CCN(c2cc(C4CC4)ccn2)C3)(C(=O)O)C[C@@H]1O [A-036] |
| 9.6 | 39 | – | CC(=O)N[C@H]1[C@H]([C@H](O)[C@H](O)CNC(=O)c2cc(C)c(O)c(C)c2)O[C@@](CCN2CCOC[C@@]23CCN(c2ccccn2)C3)(C(=O)O)C[C@@H]1O [A-037] |
| 13.3 | 12 | – | CC(=O)N[C@H]1[C@H]([C@H](O)[C@H](O)CNC(=O)c2cc(C)c(O)c(C)c2)O[C@@](CCN2CCOC[C@@]23CCN(C(=O)NC(C)(C)C)C3)(C(=O)O)C[C@@H]1O [A-042] |

— patent US20250313574A1, “SIALIC ACID DERIVATIVES AND METHODS OF USING SAME” (EISAI R&D MANAGEMENT CO., LTD., priority 2022, published 2025)
